From ChEMBL document CHEMBL5653627 (J Neurochem, 2017)
The source made the active and inactive calls. The rule behind the calls is not given here.

What was measured:
Angiopoietin-1 receptor = Angiopoietin-1 receptor (Homo sapiens, UniProt Q02763); assay: Binding affinity to TIE2 (unknown origin) assessed as dissociation constant by KINOME scan assay
[1] = target: Epithelial discoidin domain-containing receptor 1 (Homo sapiens, UniProt Q08345); assay: Binding affinity to DDR1 (unknown origin) assessed as dissociation constant by KINOME scan assay
Epithelial discoidin domain-containing receptor 1, sequence (Q08345 whole entry, the tested form may be a part): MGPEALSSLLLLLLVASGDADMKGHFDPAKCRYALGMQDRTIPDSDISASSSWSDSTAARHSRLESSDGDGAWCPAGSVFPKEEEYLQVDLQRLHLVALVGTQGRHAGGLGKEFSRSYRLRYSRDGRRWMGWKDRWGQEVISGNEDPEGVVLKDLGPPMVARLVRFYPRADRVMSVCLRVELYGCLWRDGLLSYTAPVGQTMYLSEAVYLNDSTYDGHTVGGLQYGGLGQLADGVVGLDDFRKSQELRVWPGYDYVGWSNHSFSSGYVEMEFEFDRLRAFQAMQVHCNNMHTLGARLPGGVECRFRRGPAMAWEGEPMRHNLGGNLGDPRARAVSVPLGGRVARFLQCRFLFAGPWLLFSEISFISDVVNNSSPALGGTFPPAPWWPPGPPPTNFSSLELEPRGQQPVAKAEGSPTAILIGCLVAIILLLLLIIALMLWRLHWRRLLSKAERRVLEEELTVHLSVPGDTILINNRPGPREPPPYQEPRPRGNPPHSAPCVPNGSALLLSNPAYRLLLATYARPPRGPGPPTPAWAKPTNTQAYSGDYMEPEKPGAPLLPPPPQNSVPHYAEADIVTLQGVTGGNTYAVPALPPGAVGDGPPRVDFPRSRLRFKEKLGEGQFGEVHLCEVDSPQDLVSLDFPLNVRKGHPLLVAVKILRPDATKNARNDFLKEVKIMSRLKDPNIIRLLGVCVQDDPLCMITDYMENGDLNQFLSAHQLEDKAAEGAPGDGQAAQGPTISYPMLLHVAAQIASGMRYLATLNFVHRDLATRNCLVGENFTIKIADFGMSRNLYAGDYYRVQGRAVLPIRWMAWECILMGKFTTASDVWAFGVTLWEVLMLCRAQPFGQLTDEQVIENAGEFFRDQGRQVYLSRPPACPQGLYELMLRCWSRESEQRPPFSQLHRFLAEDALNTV

SMA-497 [2] = assay: Cytotoxicity against mouse SMA-497 cells assessed as reduction in metabolic activity at 0.001 to 100 uM incubated for 72 hrs by MTT assay; assay type: functional, cell-based; details: dose 0.001-100 µM
SMA-540 [3] = assay: Cytotoxicity against mouse SMA-540 cells assessed as reduction in metabolic activity at 0.001 to 100 uM incubated for 72 hrs by MTT assay; assay type: functional, cell-based; details: dose 0.001-100 µM
SMA-560 [4] = assay: Cytotoxicity against mouse SMA-560 cells assessed as reduction in metabolic activity at 0.001 to 100 uM incubated for 72 hrs by MTT assay; assay type: functional, cell-based; details: dose 0.001-100 µM
GL261 [5] = assay: Anti-clonogenicic activity in mouse GL261 cells assessed as reduction in colony formation at 0.001 to 10 uM and measured after 10 days by MTT based clonogenic survival assay; assay type: functional, cell-based; details: dose 0.001-10 µM, time 10.0 day
SMA-497 [6] = assay: Anti-clonogenicic activity in mouse SMA-497 cells assessed as reduction in colony formation at 0.001 to 10 uM and measured after 10 days by MTT based clonogenic survival assay; assay type: functional, cell-based; details: dose 0.001-10 µM, time 10.0 day
SMA-560 [7] = assay: Anti-clonogenicic activity in mouse SMA-560 cells assessed as reduction in colony formation at 0.001 to 10 uM and measured after 10 days by MTT based clonogenic survival assay; assay type: functional, cell-based; details: dose 0.001-10 µM, time 10.0 day
SMA-497 [8] = assay: Induction of cell cycle arrest in mouse SMA-497 cells assessed as accumulation at G2/M phase at 0.1 uM incubated for 72 hrs by propidium iodide/RNase staining based flow cytomtery (Rvb= 14%); assay type: functional
SMA-497 [9] = assay: Induction of cell cycle arrest in mouse SMA-497 cells assessed as accumulation at G0/G1 phase at 0.1 uM incubated for 72 hrs by propidium iodide/RNase staining based flow cytomtery (Rvb= 76%); assay type: functional
SMA-497 [10] = assay: Induction of cell cycle arrest in mouse SMA-497 cells assessed as accumulation at sub G1 phase at 0.1 uM incubated for 72 hrs by propidium iodide/RNase staining based flow cytomtery (Rvb= 2%); assay type: functional
SMA-560 [11] = assay: Induction of cell cycle arrest in mouse SMA-560 cells assessed as accumulation at S phase at 0.1 uM incubated for 72 hrs by propidium iodide/RNase staining based flow cytomtery (Rvb= 2%); assay type: functional
SMA-560 [12] = assay: Induction of cell cycle arrest in mouse SMA-560 cells assessed as accumulation at G0/G1 phase at 0.1 uM incubated for 72 hrs by propidium iodide/RNase staining based flow cytomtery (Rvb= 71%); assay type: functional
SMA-560 [13] = assay: Induction of cell cycle arrest in mouse SMA-560 cells assessed as accumulation at sub G1 phase at 0.1 uM incubated for 72 hrs by propidium iodide/RNase staining based flow cytomtery (Rvb= 2%); assay type: functional
SMA-497 [14] = assay: Induction of apoptosis in mouse SMA-497 cells assessed as late apoptotic cells at 0.1 uM incubated for 72 hrs by Annexin V-FITC/PI staining based flow cytometric analysis (reference value: 1.86%); assay type: functional
SMA-560 [15] = assay: Induction of apoptosis in mouse SMA-560 cells assessed as early apoptotic cells at 0.1 uM incubated for 72 hrs by Annexin V-FITC/PI staining based flow cytometric analysis (reference value: 0.0056%); assay type: functional
SMA-560 [16] = assay: Induction of apoptosis in mouse SMA-560 cells assessed as live cells at 0.1 uM incubated for 72 hrs by Annexin V-FITC/PI staining based flow cytometric analysis (reference value: 84.6%); assay type: functional
SMA-560 [17] = assay: In vivo inhibition of TIE-2 in VM/Dk mouse xenografted with mouse SMA-560 cells assessed as decrease in TIE-2 expression in brain blood vessels at 100 mg/kg,po daily by immunohistochemistry analysis; assay type: functional, organism-based
GL261 [18] = assay: In vivo inhibition of TIE-2 in C57Bl/6 mouse xenografted with mouse GL261 cells assessed as decrease in TIE-2 expression in brain blood vessels at 100 mg/kg,po daily by immunohistochemistry analysis; assay type: functional, organism-based
SMA-560 [19] = assay: Antitumor activity against mouse SMA-560 cells xenografted in VM/Dk mouse assessed as decrease in number of CD31-positive intra-tumoral vessels in tumor at 100 mg/kg,po daily by immunohistochemistry analysis; assay type: functional, organism-based
SMA-540 [20] = assay: Antitumor activity against mouse SMA-540 cells xenografted in VM/Dk mouse assessed as decrease in number of CD31-positive intra-tumoral vessels in tumor at 100 mg/kg,po daily by immunohistochemistry analysis; assay type: functional, organism-based
SMA-497 [21] = assay: Antitumor activity against mouse SMA-497 cells xenografted in VM/Dk mouse assessed as increase in number of tumor-infiltrating CD11b positive monocytes/microglia in tumor at 100 mg/kg,po daily by immunohistochemistry analysis; assay type: functional, organism-based
GL261 [22] = assay: Antitumor activity against mouse GL261 cells xenografted in C57Bl/6 mouse assessed as tumor cell proliferation at 100 mg/kg,po daily by Ki67 staining based immunohistochemistry analysis; assay type: functional, organism-based
SMA-497 [23] = assay: Antitumor activity against mouse SMA-497 cells xenografted in VM/Dk mouse assessed as tumor cell proliferation at 100 mg/kg,po daily by Ki67 staining based immunohistochemistry analysis; assay type: functional, organism-based
SMA-560 [24] = assay: Antitumor activity against mouse SMA-560 cells xenografted in VM/Dk mouse assessed as tumor cell proliferation at 100 mg/kg,po daily by Ki67 staining based immunohistochemistry analysis; assay type: functional, organism-based
[25] = Toxicity in VM/Dk mouse xenografted with mouse SMA-497 cells assessed as survival rate at 100 mg/kg,po daily (Rvb=14 to 15%); assay type: organism-based; details: in vivo
[26] = Toxicity in VM/Dk mouse xenografted with mouse SMA-560 cells assessed as survival rate at 100 mg/kg,po daily (Rvb=13 to 20%); assay type: organism-based; details: in vivo
SMA-560 [27] = assay: Antitumor activity against mouse SMA-560 cells xenografted in VM/Dk mouse assessed as decrease in number of CD31-positive intra-tumoral vessels in tumor at 100 mg/kg,po daily with 12 Gy irradition after 2days of treatment initiation by immunohistochemistry analysis; assay type: functional, organism-based
SMA-497 [28] = assay: Antitumor activity against mouse SMA-497 cells xenografted in VM/Dk mouse assessed as increase in number of tumor-infiltrating CD11b positive monocytes/microglia in tumor at 100 mg/kg,po daily with 12 Gy irradition after 2days of treatment initiation by immunohistochemistry analysis; assay type: functional, organism-based
SMA-560 [29] = assay: Antitumor activity against mouse SMA-560 cells xenografted in VM/Dk mouse assessed as increase in number of tumor-infiltrating CD11b positive monocytes/microglia in tumor at 100 mg/kg,po daily with 12 Gy irradition after 2days of treatment initiation by immunohistochemistry analysis; assay type: functional, organism-based
SMA-497 [30] = assay: Antitumor activity against mouse SMA-497 cells xenografted in VM/Dk mouse assessed as decrease in tumor cell proliferation at 100 mg/kg,po daily with 12 Gy irradition after 2days of treatment initiation by Ki67 staining based immunohistochemistry analysis; assay type: functional, organism-based
SMA-560 [31] = assay: Antitumor activity against mouse SMA-560 cells xenografted in VM/Dk mouse assessed as decrease in tumor cell proliferation at 100 mg/kg,po daily with 12 Gy irradition after 2days of treatment initiation by Ki67 staining based immunohistochemistry analysis; assay type: functional, organism-based

Angiopoietin-1 receptor, sequence (Q02763 whole entry, the tested form may be a part): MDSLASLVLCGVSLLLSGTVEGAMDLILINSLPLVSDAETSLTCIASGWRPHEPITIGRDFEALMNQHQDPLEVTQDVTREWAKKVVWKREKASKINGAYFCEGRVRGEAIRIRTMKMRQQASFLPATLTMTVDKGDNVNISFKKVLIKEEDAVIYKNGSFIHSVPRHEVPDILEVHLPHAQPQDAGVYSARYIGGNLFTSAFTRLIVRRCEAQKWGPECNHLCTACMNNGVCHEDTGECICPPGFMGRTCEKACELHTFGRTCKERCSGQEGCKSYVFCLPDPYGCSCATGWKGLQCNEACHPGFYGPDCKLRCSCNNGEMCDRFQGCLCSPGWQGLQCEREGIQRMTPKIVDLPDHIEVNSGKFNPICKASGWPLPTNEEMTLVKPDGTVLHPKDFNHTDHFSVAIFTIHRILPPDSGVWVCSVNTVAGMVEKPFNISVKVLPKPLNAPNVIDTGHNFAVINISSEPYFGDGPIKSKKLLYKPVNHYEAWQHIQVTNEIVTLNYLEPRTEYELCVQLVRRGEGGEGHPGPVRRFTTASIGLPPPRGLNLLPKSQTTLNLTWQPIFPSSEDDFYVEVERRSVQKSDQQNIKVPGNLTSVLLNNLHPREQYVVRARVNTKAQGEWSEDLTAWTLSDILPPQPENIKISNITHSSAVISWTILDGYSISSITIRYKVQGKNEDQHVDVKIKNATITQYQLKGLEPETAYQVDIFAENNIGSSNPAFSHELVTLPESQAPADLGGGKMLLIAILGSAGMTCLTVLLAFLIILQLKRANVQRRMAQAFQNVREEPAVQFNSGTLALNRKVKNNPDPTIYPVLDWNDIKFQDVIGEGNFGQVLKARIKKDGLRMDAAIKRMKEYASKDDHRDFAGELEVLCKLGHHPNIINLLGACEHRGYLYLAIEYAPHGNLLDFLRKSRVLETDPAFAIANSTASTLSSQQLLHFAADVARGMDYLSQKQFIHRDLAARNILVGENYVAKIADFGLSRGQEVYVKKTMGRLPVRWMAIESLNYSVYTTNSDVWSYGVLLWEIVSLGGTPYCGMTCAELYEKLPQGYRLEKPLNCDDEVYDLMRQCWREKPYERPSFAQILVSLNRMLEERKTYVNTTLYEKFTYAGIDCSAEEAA

Cc1cc(C)c(-n2ccn3nc(-c4cccnc4)cc23)cc1NC(=O)c1cc(C#N)cc(S(F)(F)(F)(F)F)c1 [BAY-826]
Kd (Angiopoietin-1 receptor): 1.6 nM
Kd [1]: 0.4 nM
Activity (SMA-497 [2]): inactive
Activity (SMA-540 [3]): inactive
Activity (SMA-560 [4]): inactive
Activity (GL261 [5]): inactive
Activity (SMA-497 [6]): inactive
Activity (SMA-560 [7]): inactive
Activity (SMA-497 [8]): 10%
Activity (SMA-497 [9]): 66%
Activity (SMA-497 [10]): 4%
Activity (SMA-560 [11]): 3%
Activity (SMA-560 [12]): 67%
Activity (SMA-560 [13]): 2%
Activity (SMA-497 [14]): 0.3%
Activity (SMA-560 [15]): 0%
Activity (SMA-560 [16]): 90.5%
inhibition (SMA-560 [17]): Active
inhibition (GL261 [18]): Active
Activity (SMA-560 [19]): Active
Activity (SMA-540 [20]): inactive
Activity (SMA-497 [21]): Active
Activity (GL261 [22]): inactive
Activity (SMA-497 [23]): inactive
Activity (SMA-560 [24]): inactive
Survival [25]: 17%
Survival [26]: 15%
Activity (SMA-560 [27]): Active
Activity (SMA-497 [28]): Active
Activity (SMA-560 [29]): Active
Activity (SMA-497 [30]): Active
Activity (SMA-560 [31]): inactive
